Experiment: Reaction with N-acetylcysteamine (model for skin-bound sulfhydryl groups) in the presence of base, followed by 1H NMR
Conditions: for time after which the reaction was complete by NMR: 1 equivalent N-acetylcysteamine per crotonyl moiety, CDCl3
From the text: As a model for skin-bound sulfhydryl groups (—SH) of cysteine residues in skin proteins, the compound N-acetylcysteamine was allowed to react with OSM in the presence of a catalytic amount of the base 1,5-diazabicyclo[4.3.0]non-5-ene (DBN) in chloroform solution.
As a model for skin-bound sulfhydryl groups (—SH) of cysteine residues in skin proteins, the compound N-acetylcysteamine was allowed to react with OCM in the presence of a catalytic amount of the base 1,5-diazabicyclo[4.3.0]non-5-ene (DBN) in chloroform solution.
As a model for skin bound sulfhydryl groups (—SH) of cysteine residues in skin proteins, the compound N-acetylcysteamine was allowed to react with DCPEG in the presence of a catalytic amount of the base 1,5-diazabicyclo[4.3.0]non-5-ene (DBN) in chloroform solution.
A solution of octadecyl S-sorbyl-3 -mercaptopropionate (10.9 mg, 0.024 mmol) in 0.3 mL of CDCl3 was added to a solution of N-acetylcysteamine (5.2 μL, 0.048 mmol) and DBN (3.1 μL, 0.025 mmol) in 0.3 mL of CDCl3. The mixture was immediately transferred to an NMR tube and the first spectrum was recorded at time=0. The reaction solution was allowed to stand at room temperature in the NMR tube for two days, and the course of the reaction was monitored by periodically recording the ^1H NMR spectrum. A total often ^1H NMR experiments were performed at time=0, 0.25, 0.5, 1, 1.5, 4.5, 12, 20.5, 26, and 39 hours.
The time course of the reaction of OSM with 2 equiv of N-acetylcysteamine in the presence of 1 equiv of DBN in 0.6 mL of CDCl3 was studied by recording ^1H NMR spectra at various times for 39 hours. The signals of the olefinic protons due to the sorbate group of OSM (δ 6.2-6.0 and δ 7.2) and that of the newly formed C═C bond of the monoadducts (δ 5.6-5.2) were monitored in particular. In the course of these experiments, it was observed that the signals at δ 6.2-6.0 and δ 7.2 disappeared, while those at δ 5.6-5.2 appeared over the first 1.5 hours of the reaction, which indicated the formation of the monoadducts. The olefinic protons signals of the monoadducts started to fade away gradually after 1.5 hours and became very weak by approximately 39 hours. These spectra may imply the formation of the diadduct.
The reaction of OCM with N-acetylcysteamine was carried out at room temperature as follows: 22.0 mg of OCM was dissolved in 0.6 mL of CDCl3 and 5.7 μL of N-acetylcysteamine (1 equivalent) was added. […] Then a catalytic amount (0.1 equiv) of the base DBN was added, and the NMR spectrum was recorded immediately and again after 5 minutes. By 5 minutes, more than 60% of the OCM had reacted as judged by the diminished integration of the resonances at 6.9 ppm and 6.1 ppm due to the vinyl protons of the crotonyl moiety of OCM. […] A COSY spectrum confirmed that the expected product, shown earlier herein, had been formed. Nucleophilic attack by the sulfur atom of N-acetylcysteamine, presumably as the thiolate anion, at the β-position of the unsaturated thiol ester generated the expected covalent adduct. […]
The reaction of DCPEG with N-acetylcysteamine was followed by NMR: 35.6 mg of DCPEG was dissolved in 0.7 mL CDCl3 and the spectrum was recorded before and after addition of N-acetylcysteamine (1 equivalent per crotonyl moiety). […]

[1] = 2 equiv N-acetylcysteamine, 1 equiv DBN, CDCl3, room temperature

| Compound | time after which the reaction was complete by NMR (0.1 equiv DBN) [min] | OCM reacted, judged by diminished integration of the vinyl proton resonances (1 equivalent N-acetylcysteamine, 0.1 equiv DBN, CDCl3, room temperature, by 5 minutes) | time by which the monoadduct olefinic proton signals became very weak (may imply diadduct formation) [1] | time over which sorbate olefinic signals disappeared and monoadduct signals appeared [1] [h] |
| --- | --- | --- | --- | --- |
| C/C=C/C(=O)SCCC(=O)OCCCCCCCCCCCCCCCCCC [OCM, octadecyl S-crotonyl-3-mercaptopropionate] | 27 | more than 60% | – | – |
| C/C=C/C=C/C(=O)SCCC(=O)OCCCCCCCCCCCCCCCCCC [OSM, octadecyl S-sorbyl-3-mercaptopropionate] | – | – | approximately 39 hours | ≤ 1.5 |
| S,S′-dicrotonyl-α-thio-ω-mercapto[poly(ethylene glycol)] [DCPEG] | 5 | – | – | – |

— patent US20020006421A1, “Long-acting, chemical-resistant skin emollients, moisturizers, and strengtheners” (priority 1997, published 2002)
